Reference: ChEMBL document CHEMBL1133253, “Improved antibacterial activities of coumarin antibiotics bearing 5',5'-dialkylnoviose: biological activity of RU79115” (Bioorg Med Chem Lett, 2000)
≈ marks a conversion by molar mass, not a printed value.

Key:
[1] = tested on: Enterococcus faecium; test: Tested for in vitro antibacterial activity against Enterococcus faecium 02D31P2 vancomycin teicoplanin erythromycin resistance phenotype; assay type: functional
[2] = tested on: Staphylococcus aureus; test: IC50 was determined for gyrase B of Staphylococcus aureus against novobiocin (0.5 mg/mL) as reference; IC50nov/IC50comp
[3] = tested on: Staphylococcus epidermidis; test: Tested for in vitro antibacterial activity against Staphylococcus epidermidis 012GO42 oxacillin resistance phenotype; assay type: functional
[4] = tested on: Staphylococcus aureus; test: Tested for in vitro antibacterial activity against Staphylococcus aureus 011 HT3 phenotype; assay type: functional
[5] = tested on: Staphylococcus aureus; test: Tested for in vitro antibacterial activity against Staphylococcus aureus 011 GO64 ofloxacin oxacillin erythromycin resistance phenotype; assay type: functional
[6] = tested on: Streptococcus pyogenes; test: Tested for in vitro antibacterial activity against Streptococcus pyogenes O2A1UC1 phenotype; assay type: functional
[7] = tested on: Staphylococcus aureus; test: Tested for in vitro antibacterial activity against Staphylococcus aureus 011 HT1 novobiocin resistance phenotype; assay type: functional

Which results are given for `C#CCONC(=O)O[C@H]1[C@@H](O)[C@H](Oc2ccc3c(=O)c(/C(C)=N/OC)c(O)oc3c2C)OC(C)(C)[C@@H]1OC`?
MIC [1]: 2.5 µg/mL (≈ 4.68 µM); Ratio [2]: 12.5; MIC [3]: 0.08 µg/mL (≈ 0.15 µM); MIC [4]: 0.16 µg/mL (≈ 0.299 µM); MIC [5]: 0.16 µg/mL (≈ 0.299 µM); MIC [6]: 0.6 µg/mL (≈ 1.12 µM); MIC [7]: 5 µg/mL (≈ 9.35 µM)

`C#CCONC(=O)O[C@H]1[C@@H](O)[C@H](Oc2ccc3c(=O)c(/C(C)=N/OC)c(O)oc3c2C)O[C@@](C)(C=C)[C@@H]1OC` was tested. Which MIC [1] did it give?
The MIC was 1.2 µg/mL (≈ 2.2 µM).

And the Ratio [2]?
The Ratio was 2.6.

What about the MIC [3] of the same compound?
Its MIC is 0.15 µg/mL (≈ 0.274 µM).

And the MIC [4]?
Its MIC is < 0.04 µg/mL.

And the MIC [5]?
The MIC was 0.3 µg/mL (≈ 0.549 µM).

And the MIC [6]?
The MIC was 1.2 µg/mL (≈ 2.2 µM).

And the MIC [7]?
Its MIC is 2.5 µg/mL (≈ 4.57 µM).

How did the MIC [1] turn out when `C#CCONC(=O)O[C@H]1[C@@H](O)[C@H](Oc2ccc3c(=O)c(/C(C)=N/OC)c(O)oc3c2C)OC2(CCCCC2)[C@@H]1OC` was run?
Its MIC is 0.15 µg/mL (≈ 0.261 µM).

And the Ratio [2]?
Its Ratio is 2.6.

What about the MIC [3] of the same compound?
The MIC was < 0.04 µg/mL.

And the MIC [4]?
Its MIC is < 0.04 µg/mL.

What about the MIC [5] of the same compound?
The MIC was 0.15 µg/mL (≈ 0.261 µM).

What about the MIC [6] of the same compound?
The MIC was 0.6 µg/mL (≈ 1.04 µM).

And the MIC [7]?
Its MIC is 0.6 µg/mL (≈ 1.04 µM).

With `C#CCONC(=O)O[C@H]1[C@@H](O)[C@H](Oc2ccc3c(=O)c(/C(C)=N/OC)c(O)oc3c2C)O[C@@](C)(CC=C)[C@@H]1OC` as the compound, how does the MIC [1] read?
The MIC was 0.6 µg/mL (≈ 1.07 µM).

And the Ratio [2]?
The Ratio was 2.6.

And the MIC [3]?
Its MIC is < 0.04 µg/mL.

What about the MIC [4] of the same compound?
The MIC was < 0.04 µg/mL.

And the MIC [6]?
Its MIC is 0.3 µg/mL (≈ 0.535 µM).

And the MIC [7]?
Its MIC is 1.2 µg/mL (≈ 2.14 µM).

Which results are given for `CO[C@@H]1[C@@H](OC(=O)c2ccc(C)[nH]2)[C@@H](O)[C@H](Oc2ccc3c(O)c(NC(=O)c4ccc(O)c(CC=C(C)C)c4)c(=O)oc3c2Cl)OC1(C)C` [CHLOROBIOCIN]?
MIC [1]: < 0.04 µg/mL; Ratio [2]: 1.7; MIC [4]: < 0.04 µg/mL; MIC [6]: < 0.04 µg/mL; MIC [7]: 0.6 µg/mL (≈ 0.861 µM)

How did the MIC [1] turn out when `C#CCONC(=O)O[C@H]1[C@@H](O)[C@H](Oc2ccc3c(O)c(/C(C)=N/OC)c(=O)oc3c2C)OC(CC)(CC)[C@@H]1OC` was run?
The MIC was 0.6 µg/mL (≈ 1.07 µM).

And the Ratio [2]?
Its Ratio is 4.

What about the MIC [3] of the same compound?
The MIC was < 0.04 µg/mL.

And the MIC [4]?
The MIC was < 0.04 µg/mL.

And the MIC [5]?
Its MIC is 0.08 µg/mL (≈ 0.142 µM).

And the MIC [6]?
Its MIC is 0.6 µg/mL (≈ 1.07 µM).

What about the MIC [7] of the same compound?
The MIC was 2.5 µg/mL (≈ 4.44 µM).

How did the MIC [1] turn out when `C#CCONC(=O)O[C@H]1[C@@H](O)[C@H](Oc2ccc3c(O)c(/C(C)=N/OC)c(=O)oc3c2C)O[C@@](C)(CC)[C@@H]1OC` was run?
The MIC was 0.15 µg/mL (≈ 0.273 µM).

And the Ratio [2]?
Its Ratio is 11.1.

What about the MIC [3] of the same compound?
The MIC was < 0.04 µg/mL.

And the MIC [4]?
Its MIC is < 0.04 µg/mL.

What about the MIC [6] of the same compound?
The MIC was 0.08 µg/mL (≈ 0.146 µM).

And the MIC [7]?
Its MIC is 0.3 µg/mL (≈ 0.547 µM).

With `C#CCONC(=O)O[C@H]1[C@@H](O)[C@H](Oc2ccc3c(O)c(/C(C)=N/OC)c(=O)oc3c2C)O[C@@H](CC)[C@@H]1OC` as the compound, how does the MIC [1] read?
Its MIC is 40 µg/mL (≈ 74.8 µM).

And the Ratio [2]?
Its Ratio is 2.6.

What about the MIC [3] of the same compound?
Its MIC is 0.3 µg/mL (≈ 0.561 µM).

And the MIC [4]?
The MIC was 0.3 µg/mL (≈ 0.561 µM).

What about the MIC [5] of the same compound?
Its MIC is 0.6 µg/mL (≈ 1.12 µM).

And the MIC [6]?
Its MIC is 2.5 µg/mL (≈ 4.68 µM).

And the MIC [7]?
The MIC was 20 µg/mL (≈ 37.4 µM).

Which results are given for `CO[C@@H]1[C@@H](OC(N)=O)[C@@H](O)[C@H](Oc2ccc3c(O)c(NC(=O)c4ccc(O)c(CC=C(C)C)c4)c(=O)oc3c2C)OC1(C)C` [NOVOBIOCIN]?
MIC [1]: 0.6 µg/mL (≈ 0.979 µM); Ratio [2]: 1; MIC [3]: < 0.04 µg/mL; MIC [4]: < 0.04 µg/mL; MIC [6]: 0.3 µg/mL (≈ 0.49 µM); MIC [7]: 10 µg/mL (≈ 16.3 µM)
